Experimental data from patent publication US11186589B2, “Cyanoindoline derivatives as NIK inhibitors” (Janssen Pharmaceutica NV, priority 2016, dated 2021).

Assays:
KMS12-BM cells = test: Antiproliferative activity on KMS12-BM (NIK WT) multiple myeloma cells (CellTiter-Glo); assay type: cell-based, human; conditions: Homo sapiens, KMS-12-BM, 96 h, 96 hr treatment, averaged values, read-out: KMS-12 Proliferation inhibition (IC50 (nM))
Procedure, shortened: (§1)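 Cells in RPMI 1640 with 2 mM L-glutamine and 10% FCS, treated 96 hr at 37 °C with 9-point 1:3 dilution series, 0.3% DMSO final. Viability read by CellTiter-Glo luminescence, mean of 2 wells. Time-zero blank subtracted; growth expressed as % of untreated control.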

JJN-3 cells = test: Antiproliferative activity on JJN-3 (NIK translocated) multiple myeloma cells (CellTiter-Glo); assay type: cell-based, human; conditions: Homo sapiens, JJN-3, 96 h, JJN-3 (NIK translocated) cells, 96 hr treatment, averaged values, read-out: JJN-3 Proliferation inhibition (IC50 (nM))
Procedure, shortened: as §1

NIK/MAP3K14 = NIK/MAP3K14 (Homo sapiens (Human), UniProt Q99558); test: Inhibition of auto-phosphorylation of recombinant human NF-kappaB-inducing kinase (NIK/MAP3K14) activity (AlphaScreen); assay type: biochemical; conditions: averaged values over all measurements on all batches, 25 microM ATP
NIK/MAP3K14, sequence (Q99558 whole entry): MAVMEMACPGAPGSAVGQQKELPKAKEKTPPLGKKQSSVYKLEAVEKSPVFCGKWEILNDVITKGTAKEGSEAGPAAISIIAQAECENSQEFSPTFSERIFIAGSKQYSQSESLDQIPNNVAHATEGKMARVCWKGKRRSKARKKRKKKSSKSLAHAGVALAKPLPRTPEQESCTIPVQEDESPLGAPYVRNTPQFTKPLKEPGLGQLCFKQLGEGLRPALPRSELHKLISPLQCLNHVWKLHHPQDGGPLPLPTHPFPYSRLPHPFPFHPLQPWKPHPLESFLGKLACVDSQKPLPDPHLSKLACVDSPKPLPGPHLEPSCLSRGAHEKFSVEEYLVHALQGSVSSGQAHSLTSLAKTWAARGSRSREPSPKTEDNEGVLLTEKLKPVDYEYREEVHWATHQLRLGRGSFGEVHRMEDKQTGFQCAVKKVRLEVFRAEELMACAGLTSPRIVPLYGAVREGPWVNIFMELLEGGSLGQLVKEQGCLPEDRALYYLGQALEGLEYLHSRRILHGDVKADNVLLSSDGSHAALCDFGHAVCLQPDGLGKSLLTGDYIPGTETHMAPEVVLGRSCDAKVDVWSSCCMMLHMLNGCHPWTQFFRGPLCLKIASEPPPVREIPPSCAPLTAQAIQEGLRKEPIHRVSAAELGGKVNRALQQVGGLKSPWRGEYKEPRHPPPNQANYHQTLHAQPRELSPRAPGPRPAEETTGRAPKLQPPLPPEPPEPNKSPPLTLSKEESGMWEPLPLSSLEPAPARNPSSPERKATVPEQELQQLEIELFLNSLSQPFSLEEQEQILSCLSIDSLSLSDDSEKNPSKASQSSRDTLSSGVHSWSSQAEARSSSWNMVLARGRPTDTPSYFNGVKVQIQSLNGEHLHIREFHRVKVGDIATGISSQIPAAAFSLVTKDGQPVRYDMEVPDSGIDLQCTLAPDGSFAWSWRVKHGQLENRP
Procedure, shortened: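 GST-tagged NIK (0.2 nM) auto-phosphorylation was run with 25 microM ATP in pH 7.5 Tris buffer with MgCl2 for 1 h at 25 °C. It was detected by AlphaScreen with anti-phospho-IKK Ser176/180 antibody. IC50 came from sigmoidal fits of blank-subtracted % inhibition versus log concentration.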

[1] = test system: P-IKKα levels in L363 cells; test: Effect of compounds on P-IKKα levels in L363 (NIK translocated multiple myeloma) cells; assay type: cell-based, human; conditions: Homo sapiens, L-363, 2 h, 2 hr treatment, averaged values, read-out: Inhibition of pIKKα_L-363 (IC50 (nM))
Method: Effect of Compounds on P-IKKα Levels in L363 (NIK Translocated Multiple Myeloma) Cells
All compounds tested were dissolved in DMSO and further dilutions were made in culture medium. Final DMSO concentration was 1% (v/v) in cell assays. The human L363 cells (ATCC) were cultured in RPMI 1640 medium supplemented with GlutaMax and 10% fetal calf serum (PAA). Cells were routinely maintained at densities of 0.2×10^6 cells per ml—1×10^6 cells per ml at 37° C. in a humidified 5% CO2 atmosphere. Cells were passaged twice a week splitting back to obtain the low density. Cells were seeded in 96 well plates (Nunc 167008) at 2×10^6 per ml media in a volume of 75 μl per well plus 25 μl 1 μg/ml recombinant human B-cell activating factor (BAFF/BLyS/TNFSF13B). Seeded cells were incubated at 37° C. in a humidified 5% CO2 atmosphere for 24 hr. Drugs and/or solvents were added (20 μl) to a final volume of 120 μl. Following 2 hr treatment plates were removed from the incubator and cell lysis was achieved by the addition of 30 μl 5× lysis buffer followed by shaking on a plate shaker at 4° C. for 10 min. At the end of this incubation lysed cells were centrifuged at 800×g for 20 min at 4° C. and the lysate was assessed for P-IKKα levels by sandwich immuno-assay carried out in anti-rabbit antibody coated Mesoscale plates. Within an experiment, the results for each treatment were the mean of 2 replicate wells. For initial screening purposes, compounds were tested using an 8 point dilution curve (serial 1:3 dilutions). For each experiment, controls (containing MG132 and BAFF but no test drug) and a blank incubation (containing MG132 and BAFF and 10 μM ADS125117, a test concentration known to give full inhibition) were run in parallel. The blank incubation value was subtracted from all control and sample values. To determine the IC50 a sigmoidal curve was fitted to the plot of % inhibition of control P-IKKα levels versus Log10 compound concentration.

CC(C)Oc1nc2c(cc1Nc1nccc(-c3cc(C#N)c4c(c3)[C@@](C)(CO)CN4)n1)COCC2 [Compound 46]
IC50 (KMS12-BM cells): > 10000 nM | IC50 (JJN-3 cells): 778 nM | IC50 (NIK/MAP3K14): 13 nM | IC50 [1]: 20 nM

Cn1c2c(cc(Nc3nccc(-c4cc(C#N)c5c(c4)[C@@](C)(CO)CN5)n3)c1=O)COCC2 [Compound 48]
IC50 (KMS12-BM cells): > 10000 nM | IC50 (JJN-3 cells): ~2340 nM | IC50 (NIK/MAP3K14): 1.6 nM | IC50 [1]: 31 nM

CC(C)Oc1nc2c(cc1Nc1nccc(-c3cc(C#N)c4c(c3)[C@@](C)(CO)CN4)n1)CN(C)CC2 [Compound 50]
IC50 (KMS12-BM cells): 3980 nM | IC50 (JJN-3 cells): 240 nM | IC50 (NIK/MAP3K14): 3.4 nM | IC50 [1]: 56 nM

C[C@]1(CO)CNc2c(C#N)cc(-c3ccnc(Nc4cnc5c(c4)CN(C4CC4)CC5)n3)cc21 [Compound 51]
IC50 (KMS12-BM cells): ~174 nM | IC50 (JJN-3 cells): 52 nM | IC50 (NIK/MAP3K14): 3.4 nM | IC50 [1]: 4 nM

COc1nc2c(cc1Nc1nccc(-c3cc(C#N)c4c(c3)[C@@](C)(CO)CN4)n1)CN(C1CC1)CC2 [Compound 52]
IC50 (KMS12-BM cells): > 10000 nM | IC50 (JJN-3 cells): 200 nM | IC50 (NIK/MAP3K14): 7.8 nM | IC50 [1]: 20 nM

COc1nc2c(cc1Nc1nccc(-c3cc(C#N)c4c(c3)C(C)(CC(F)F)CN4)n1)CN(C)CC2 (centres unmarked) [Compound 56]
IC50 (KMS12-BM cells): ~5750 nM | IC50 (JJN-3 cells): 3240 nM | IC50 (NIK/MAP3K14): 12 nM | IC50 [1]: 76 nM

C[C@]1(CO)CNc2c(C#N)cc(-c3ccnc(Nc4cc5c(n(CCC6CC6)c4=O)CCOC5)n3)cc21 [Compound 58]
IC50 (KMS12-BM cells): > 10000 nM | IC50 (JJN-3 cells): 2400 nM | IC50 (NIK/MAP3K14): 35.5 nM | IC50 [1]: 204 nM

CCc1c(Nc2nccc(-c3cc(C#N)c4c(c3)[C@@](C)(CO)CN4)n2)ccc2c1CCN(C(C)CO)C2 (some centres unmarked) [Compound 60]
IC50 (KMS12-BM cells): 603 nM | IC50 (JJN-3 cells): 100 nM | IC50 (NIK/MAP3K14): 4.8 nM | IC50 [1]: 17 nM
